# Source: article PMC5595280, “Cytotoxicity and anti-tumor effects of new ruthenium complexes on triple negative breast cancer cells” (PLoS ONE, 2017)
# Columns and labels:
# [1] = tested on: DNA; design: method as in not given; conditions: order of magnitude reported for classical intercalators; ref not given; cited from earlier work
# [2] = tested on: pBR322 plasmid DNA; test: Agarose gel electrophoresis of plasmid DNA; type: binding; conditions: Ri 0.50, 18 h, 37°C
# Description: Ten microliters of pBR322 plasmid DNA in a Tris-HCl buffer were incubated at 37°C for 18 h with molar ratios between 0.12 and 0.5. After incubation, 5 μL of each sample was separated by electrophoresis in a 1% agarose gel for 45 min at 100V using a Tris borate–EDTA buffer (TBE) and stained with ethidium bromide ([…] ethidium bromide per 40 mL agarose gel mixture). Samples of DNA with DMSO were used as controls. The DNA bands were visualized as an image using a UV light transilluminator (ChemiDoc MP, BioRad Laboratories).
# The influence of the compounds on the tertiary structure of DNA was determined by their ability to modify the electrophoretic mobility of forms of pBR322 plasmid DNA (Fig 6C). Agarose gel electrophoresis was performed using pBR322 plasmid DNA in the absence and presence of the complexes. […] In Ri 0.12 and 0.25 complexes (1–3) show the corresponding open circular, linear and super coiled form. […] This means that the degree of super helicity of the DNA molecules has been altered, in the same way as that described previously for other coordination platinum(II) and palladium (II) compounds containing 7-azaindolyl ligand [36].
# [3] = molecular target: HSA (Homo sapiens, UniProt P02768); test: HSA tryptophan fluorescence quenching; type: binding; conditions: for ΔS (HSA): complex-HSA system
# Description: For fluorescence measurements, the HSA concentration in Tris–HCl buffer was kept constant in all the samples, while the complex concentration was increased from 0.50 to 50 μM, and quenching of the emission intensity of the HSA tryptophan residues at 305 nm (excitation wavelength 270 nm) was monitored at different temperatures (25°C and 37°C). The experiments were carried out in triplicate and analysed using the classical Stern-Volmer equation. The binding constant (Kb) and number of complexes bound to HSA (n) were determined by plotting the double log graph of the fluorescence data using: log [(F0-F)/F] = log Kb + nlog[Q]. The thermodynamic parameter (ΔH) was calculated from equation: ln (K2/K1) = [(1/T1)-(1/T2)]ΔH/R, where K1 and K2 are the binding constants at temperatures T1 and T2, and R is the gas constant. Furthermore, the change in free energy (ΔG) and entropy (ΔS) were calculated from the following equation: ΔG = -RT lnK = ΔH − TΔS.
# Human serum albumin (HSA) is the most abundant protein in the blood and cerebrospinal fluid and plays a fundamental role in the distribution of essential transition metal ions in the human body. Moreover, HSA is an important physiological transporter of the essential metal ions Cu^2+, and Zn^2+ in the bloodstream. […] The fluorescence spectrum is essentially that of tryptophan residue; contribution of tyrosine is relatively minor. In order to determine the protein binding affinity of complexes (1–4), tryptophan emission quenching experiments were carried out by adding the complexes in increasing concentration (0–50 μM) to HSA at two different temperatures and following the decrease in fluorescence intensities (Fig 6D). The results point out a good linearity at the two different temperatures. The binding constants, KSV, calculated from the Stern-Volmer equation are presented on Table 2.
# [4] = Water-octanol partition coefficient (stir-flask method); type: physicochemical; conditions: 24 h shaking, 37°C
# Description: The water-octanol partition coefficients were determined by use of the stir-flask method. The complex was added in a mixture with equal volumes of water and octanol shaking by 24 h at 100 rpm and 37°C, samples were centrifuged for 5min at 300rpm, the organic and aqueous phases were separated. The concentration of drug in each phase was measured spectrophotometrically in order to determine values of P = [drug] (in octanol)/[drug] (in water).
# [5] = tested on: MCF-10A cells; test: Cell morphology (inverted microscope); type: cell-based, human; conditions: 24 h; for effect on cell morphology: 25 and 50 μM
# Description: (§1) Exponentially growing MDA-MB-231, MCF-7 or MCF-10A cells were harvested, counted and seeded (1x10^5 cells/mL) and plated on sterile 12-well plates for 24 h. Cells were allowed to grow at 37°C in 5% CO2 overnight and then, treated or not (control) with different concentrations of the complexes (1–4) for 2 and 24 h. Cell morphology was examined under an inverted microscope (Nikon, T5100) with amplification of 100×.
# (§2) In this work the cytotoxicity of the complexes was evaluated against the MDA-MB-231, MCF-7 and MCF-10A cells by morphology, clonogenic and MTT assays (Fig 2, Table 1). To investigate the effects on cell morphology, the complexes were incubated with cells at concentrations of 25 and 50 μM for 24 h.
# [6] = tested on: MCF-7 cells; test: Cell morphology (inverted microscope); type: cell-based, human; conditions: MCF-7, 25 and 50 μM, 24 h
# Description: as §1, §2
# [7] = tested on: MDA-MB-231 cells; test: Cell morphology (inverted microscope); type: cell-based, human; conditions: 24 h
# Description: as §1, §2
# [8] = tested on: MCF-10A cells; test: MTT cell proliferation assay; type: cell-based, human; conditions: 24 h of incubation, read-out: IC50 ±SEM MCF-10A
# Description: (§3) MDA-MB-231 human breast tumor cells and MCF7 human breast tumor cells, obtained from Rio de Janeiro Cell Bank, were maintained at 37°C in 5% CO2 in DMEM medium containing fetal bovine serum (FBS) 10% (Vitrocell). MCF-10A, a non-tumor breast cell line, obtained from Rio de Janeiro Cell Bank, was cultivated in DMEM/F12 medium containing horse serum (HS) 5%, EGF (0.02 mg/mL); hydrocortisone (0.05 mg/mL); cholera toxin (0.001 mg/mL) and insulin (0.01 mg/mL). Both media contained penicillin (100 UI/mL), streptomycin ([…]) and L-glutamine (2 mM).
# (§4) Proliferation assays were performed as described earlier. Briefly, cells lines were prepared in a concentration of 1x10^4 cells/100 μL, in complete medium (with 10% FBS), and plated on sterile 96-well plates for 24 h. The culture medium was removed from the wells and a new one, supplemented with 10% FBS and containing different concentrations of (1) [Ru(SO4)(dppb)(bipy)] (2) [Ru(CO3)(dppb)(bipy)], (3), [Ru(C2O4)(dppb)(bipy)], or (4) [Ru(CH3CO2)(dppb)(bipy)]PF6, was added to the wells. Cells were incubated for 24 h under the same conditions as described above. Cell proliferation assay was performed in comparison with untreated control. After incubation, the culture medium of each well was removed and a solution containing MTT (1 mg/mL) was added (100 μL/well). The plates were then kept at 37°C for 4 h and the formed crystals were dissolved in DMSO. The absorbance was read on an ELISA plate reader at a wavelength of 540 nm. […] The selectivity index (SI) was calculated as the ratio IC50 (MCF-10A) / IC50 (MDA-MB-231).
# (§5) Each experiment was repeated three times in triplicate and a standard error mean was calculated. Shapiro-Wilk’s test was used to verify data normality. As normal distribution was present, the results were compared statistically with a one-way or two-way analysis of variance (ANOVA). […] The data were analysed and IC50 calculations were made using Hill’s equation in the GraphPad Prism software (version 6.05).
# [9] = tested on: MCF-7 cells; test: MTT cell proliferation assay; type: cell-based, human; conditions: 24 h of incubation, read-out: IC50 ±SEM MCF-7
# Description: as §3, §4, §5
# [10] = tested on: MDA-MB-231 cells; test: MTT cell proliferation assay; type: cell-based, human; conditions: 24 h of incubation, read-out: IC50 ±SEM MDA-MB-231
# Description: as §3, §4, §5
# Sequence of HSA (P02768 25-609): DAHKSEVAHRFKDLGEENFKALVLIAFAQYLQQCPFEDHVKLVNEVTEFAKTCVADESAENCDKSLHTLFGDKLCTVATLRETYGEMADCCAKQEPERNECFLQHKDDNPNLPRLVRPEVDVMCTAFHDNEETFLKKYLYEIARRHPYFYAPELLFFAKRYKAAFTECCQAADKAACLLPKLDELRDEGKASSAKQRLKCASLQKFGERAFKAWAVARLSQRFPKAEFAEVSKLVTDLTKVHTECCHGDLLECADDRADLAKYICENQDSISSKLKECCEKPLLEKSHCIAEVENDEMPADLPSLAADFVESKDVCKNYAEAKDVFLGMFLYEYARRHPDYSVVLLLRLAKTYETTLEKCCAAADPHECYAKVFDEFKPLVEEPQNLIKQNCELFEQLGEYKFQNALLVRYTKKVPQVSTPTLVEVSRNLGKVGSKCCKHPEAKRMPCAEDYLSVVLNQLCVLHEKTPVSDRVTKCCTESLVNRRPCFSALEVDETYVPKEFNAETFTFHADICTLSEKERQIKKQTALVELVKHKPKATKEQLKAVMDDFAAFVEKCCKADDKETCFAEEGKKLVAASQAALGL
Compound,DNA binding constant [1],electrophoretic mobility of super coiled pBR322 band [2],Kq (HSA) ([3]; T 298),Ksv (HSA) ([3]; T 298),"n (number of binding sites, HSA) ([3]; T 298)",Kq (HSA) ([3]; T 310),Ksv (HSA) ([3]; T 310),"n (number of binding sites, HSA) ([3]; T 310)",ΔS (HSA) [3],Log P [4],effect on cell morphology [5],effect on cell morphology [6],"effect on cell morphology ([7]; MDA-MB-231, 50 μM)",IC50 [8],IC50 [9],IC50 [10],effect on cell morphology / cell density ([5]; 50 μM),"effect on cell morphology ([7]; MDA-MB-231, 25 and 50 μM)"
[Ru(phen)2(dppz)]^2+,10^6 to 10^7 M^-1,,,,,,,,,,,,,,,,,
[Ru(CO3)(dppb)(bipy)] [Complex (2)],,increased the electrophoretic mobility,2.935e+13 M⁻¹ s⁻¹,2.81 ± 0.12 x10^4 M^-1,1.00,3.425e+13 M⁻¹ s⁻¹,3.28 ± 0.14 x10^4 M^-1,0.98,85.80 J.mol^-1K,0.55 ± 0.02,did not alter the morphology,did not alter the morphology,profoundly altered their morphology,31.5 ± 1.06 µM,> 200 µM,52.7 ± 0.62 µM,,
"[Cl-].[Cl-].[Ru+2].c1ccc(-c2ccccn2)nc1.c1ccc(P(CCCCP(c2ccccc2)c2ccccc2)c2ccccc2)cc1 [Precursor, cis-[RuCl2(dppb)(bipy)], reference compound]",,,,,,,,,,-0.40 ± 0.01,,,,81.9 ± 7.87 µM,> 200 µM,> 200 µM,,
"O=C([O-])C(=O)[O-].[Ru+2].c1ccc(-c2ccccn2)nc1.c1ccc(P(CCCCP(c2ccccc2)c2ccccc2)c2ccccc2)cc1 [Complex (3), [Ru(C2O4)(dppb)(bipy)]]",,,1.63e+13 M⁻¹ s⁻¹,1.56 ± 0.13 x10^4 M^-1,0.90,1.702e+13 M⁻¹ s⁻¹,1.63 ± 0.10 x10^4 M^-1,0.85,80.00 J.mol^-1K,0.06 ± 0.008,,did not alter the morphology,,42.2 ± 2.37 µM,> 200 µM,> 200 µM,reduced cell density,did not alter the morphology
"N.N.[Cl][Pt][Cl] [Cisplatin, reference compound]",,,,,,,,,,,,,,29.4 ± 0.85 µM,79.18 ± 0.2 µM,2.43 ± 0.2 µM,,
"O=S(=O)([O-])[O-].[Ru+2].c1ccc(-c2ccccn2)nc1.c1ccc(P(CCCCP(c2ccccc2)c2ccccc2)c2ccccc2)cc1 [Complex (1), [Ru(SO4)(dppb)(bipy)]]",,,5.26e+13 M⁻¹ s⁻¹,5.04 ± 0.09 x10^4 M^-1,1.10,4.65e+13 M⁻¹ s⁻¹,4.45 ± 0.18 x10^4 M^-1,1.06,72.70 J.mol^-1K,0.26 ± 0.06,altered the morphology,did not alter the morphology,,42.8 ± 5.02 µM,> 200 µM,> 200 µM,,did not alter the morphology
CC[n+]1c(-c2ccccc2)c2cc(N)ccc2c2ccc(N)cc21 [ethidium bromide],10^6 to 10^7 M^-1,,,,,,,,,,,,,,,,,
